Our source for the EC50 values is patent publication US8309734B2 (Hoffmann-La Roche Inc., priority 2008, dated 2012).

The EC50 is the midpoint of the concentration-response curve. Read a low EC50 as higher potency in that assay.

This test concerns the target T1, human GPBAR1 receptor (Homo sapiens, UniProt Q8TDU6).
T1 construct: expressed in transfected cells
T1 sequence (Q8TDU6 1-330): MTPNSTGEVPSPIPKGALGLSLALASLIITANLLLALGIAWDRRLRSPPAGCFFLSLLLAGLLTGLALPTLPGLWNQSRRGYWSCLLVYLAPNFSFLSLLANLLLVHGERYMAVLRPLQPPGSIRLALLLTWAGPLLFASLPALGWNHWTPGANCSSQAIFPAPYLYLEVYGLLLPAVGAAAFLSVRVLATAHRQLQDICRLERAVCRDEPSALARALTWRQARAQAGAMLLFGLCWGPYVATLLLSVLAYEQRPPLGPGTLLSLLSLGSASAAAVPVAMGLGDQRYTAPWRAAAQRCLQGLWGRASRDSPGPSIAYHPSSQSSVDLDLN
As to the kind of experiment: functional cAMP assay in CHO-dhfr(minus) cells expressing human GPBAR1 receptors. The class given is cell-based. The settings on record: cAMP increase (TR-FRET) in CHO-dhfr(minus) cells expressing human GPBAR1; compounds incubated 30 min at 30° C. For orientation: Cyclic AMP is a second messenger, typically raised through Gs and lowered through Gi signalling.
With `O=C(c1cccnc1Oc1cc(Cl)ccc1Cl)N1CCNc2ccccc21` [Example 122, [2-(2,5-Dichloro-phenoxy)-pyridin-3-yl]-(3,4-dihydro-2H-quinoxalin-1-yl)-methanone], the EC50 came out at 62 nM. `CC(C)N1CCN(C(=O)c2cccnc2Oc2cc(Cl)ccc2Cl)c2ccccc21` [Example 124, [2-(2,5-Dichloro-phenoxy)-pyridin-3-yl]-(4-isopropyl-3,4-dihydro-2H-quinoxalin-1-yl)-methanone]: the EC50 was determined as 607 nM. `O=C(c1cccnc1Oc1cc(Cl)ccc1Cl)N1CCN(C2CC2)c2ccccc21` [Example 125, (4-Cyclopropyl-3,4-dihydro-2H-quinoxalin-1-yl)-[2-(2,5-dichloro-phenoxy)-pyridin-3-yl]-methanone] returned an EC50 of 4 nM. The compound `O=C(c1cccnc1Oc1cc(Cl)ccc1Cl)N1CCN(C2CCC2)c2ccccc21` [Example 126, (4-Cyclobutyl-3,4-dihydro-2H-quinoxalin-1-yl)-[2-(2,5-dichloro-phenoxy)-pyridin-3-yl]-methanone] gave an EC50 of 10 nM. Consider `O=C(c1cccnc1Oc1cc(Cl)ccc1Cl)N1CCN(C2COC2)c2ccccc21` [Example 127, [2-(2,5-Dichloro-phenoxy)-pyridin-3-yl]-(4-oxetan-3-yl-3,4-dihydro-2H-quinoxalin-1-yl)-methanone], for which it took 14 nM to reach a half-maximal effect (EC50). The compound `O=C1CCN(C(=O)c2cccnc2Oc2cc(Cl)ccc2Cl)c2ccccc21` [Example 128, 1-[2-(2,5-Dichloro-phenoxy)-pyridine-3-carbonyl]-2,3-dihydro-1H-quinolin-4-one] gave a concentration giving a half-maximal response (EC50) of 918 nM. `C=C1CCN(C(=O)c2cccnc2Oc2cc(Cl)ccc2Cl)c2ccccc21` [Example 129, [2-(2,5-Dichloro-phenoxy)-pyridin-3-yl]-(4-methylene-3,4-dihydro-2H-quinolin-1-yl)-methanone] had a half-maximal effective concentration (EC50) of 24 nM. Take `O=C(c1cccnc1Oc1cc(Cl)ccc1Cl)N1CCC(N2CC(F)(F)C2)c2ccccc21` (stereo not shown) [Example 130, [2-(2,5-Dichloro-phenoxy)-pyridin-3-yl]-[4-(3,3-difluoro-azetidin-1-yl)-3,4-dihydro-2H-quinolin-1-yl]-methanone]: the EC50 is 1830 nM. To `CN(C(=O)c1cccnc1Oc1cc(Cl)ccc1Cl)c1ccccc1C1CC1` [Example 131, N-(2-Cyclopropyl-phenyl)-2-(2,5-dichloro-phenoxy)-N-methyl-nicotinamide] belongs 321 nM; to `CSc1ccccc1N(C)C(=O)c1cccnc1Oc1cc(Cl)ccc1Cl` [Example 132, 2-(2,5-Dichloro-phenoxy)-N-methyl-N-(2-methylsulfanyl-phenyl)-nicotinamide], 66 nM; to `CN(C(=O)c1cccnc1Oc1cc(Cl)ccc1Cl)c1ccccc1-c1ccnn1C` [Example 133, 2-(2,5-Dichloro-phenoxy)-N-methyl-N-[2-(2-methyl-2H-pyrazol-3-yl)-phenyl]-nicotinamide], 1970 nM. Regarding `CN(C(=O)c1cccnc1Oc1cc(Cl)ccc1Cl)c1ccccc1N` [Example 134, N-(2-Amino-phenyl)-2-(2,5-dichloro-phenoxy)-N-methyl-nicotinamide], the midpoint of the response, the EC50, lay at 1650 nM. For `CN(C(=O)c1cccnc1Oc1cc(Cl)ccc1Cl)c1cc(Cl)ccc1Cl` [Example 135, 2-(2,5-Dichloro-phenoxy)-N-(2,5-dichloro-phenyl)-N-methyl-nicotinamide] the value was 473 nM; for `O=C(c1cccnc1Oc1cc(Cl)ccc1Cl)N1CC2CCCN2c2ccccc21` (stereo not shown) [Example 136, [2-(2,5-Dichloro-phenoxy)-pyridin-3-yl]-(2,3,3a,4-tetrahydro-1H-pyrrolo[1,2-a]quinoxalin-5-yl)-methanone], 246 nM. Turning to `CC(C)CN1CCN(C(=O)c2cccnc2Oc2cc(Cl)ccc2Cl)c2ccccc21` [Example 137, [2-(2,5-Dichloro-phenoxy)-pyridin-3-yl]-(4-isobutyl-3,4-dihydro-2H-quinoxalin-1-yl)-methanone], the EC50 came out at 201 nM. The compound `O=C(c1cccnc1Oc1cc(Cl)ccc1Cl)N1CCN(CC2CC2)c2ccccc21` [Example 138, (4-Cyclopropylmethyl-3,4-dihydro-2H-quinoxalin-1-yl)-[2-(2,5-dichloro-phenoxy)-pyridin-3-yl]-methanone] yielded an EC50 of 35 nM. To `O=C(c1cccnc1Oc1cc(Cl)ccc1Cl)N1CCN(CC2CCC2)c2ccccc21` [Example 139, (4-Cyclobutylmethyl-3,4-dihydro-2H-quinoxalin-1-yl)-[2-(2,5-dichloro-phenoxy)-pyridin-3-yl]-methasone] belongs 926 nM; to `CC(=O)OCCN1CCN(C(=O)c2cccnc2Oc2cc(Cl)ccc2Cl)c2ccccc21` [Example 140, Acetic acid 2-{4-[2-(2,5-dichloro-phenoxy)-pyridine-3-carbonyl]-3,4-dihydro-2H-quinoxalin-1-yl}-ethyl ester], 259 nM; to `CCOC(=O)CN1CCN(C(=O)c2cccnc2Oc2cc(Cl)ccc2Cl)c2ccccc21` [Example 141, {4-[2-(2,5-Dichloro-phenoxy)-pyridine-3-carbonyl]-3,4-dihydro-2H-quinoxalin-1-yl}-acetic acid ethyl ester], 324 nM. On to `O=C(O)CN1CCN(C(=O)c2cccnc2Oc2cc(Cl)ccc2Cl)c2ccccc21` [Example 142, {4-[2-(2,5-Dichloro-phenoxy)-pyridine-3-carbonyl]-3,4-dihydro-2H-quinoxalin-1-yl}-acetic acid], for which the EC50 was 307 nM.

Turning to `O=C(O)CCc1ccc(S(=O)(=O)N2CCN(C(=O)c3cccnc3Oc3cc(Cl)ccc3Cl)c3ccccc32)cc1` [Example 143, 3-(4-{4-[2-(2,5-Dichloro-phenoxy)-pyridine-3-carbonyl]-3,4-dihydro-2H-quinoxaline-1-sulfonyl}-phenyl)-propionic acid], the half-maximal effective concentration (EC50) was 745 nM. For `O=C(c1cccnc1Oc1cc(C(F)(F)F)ccc1F)N1CCCc2ccccc21` [Example 144, (3,4-Dihydro-2H-quinolin-1-yl)-[2-(2-fluoro-5-trifluoromethyl-phenoxy)-pyridin-3-yl]-methanone] the value was 286 nM; for `COc1ncccc1N(C)C(=O)c1cc(F)cnc1Oc1cc(Cl)ccc1Cl` [Example 145, 2-(2,5-Dichloro-phenoxy)-5-fluoro-N-(2-methoxy-pyridin-3-yl)-N-methyl-nicotinamide], 29 nM. For `COc1ccc(Cl)c(N(C)C(=O)c2cc(F)cnc2Oc2cc(Cl)ccc2Cl)c1Cl` [Example 146, N-(2,6-Dichloro-3-methoxy-phenyl)-2-(2,5-dichloro-phenoxy)-5-fluoro-N-methyl-nicotinamide] the value was 1970 nM; for `O=C(c1cc(F)cnc1Oc1cc(Cl)ccc1Cl)N1CCNc2ccccc21` [Example 147, [2-(2,5-Dichloro-phenoxy)-5-fluoro-pyridin-3-yl]-(3,4-dihydro-2H-quinoxalin-1-yl)-methanone], 15 nM; for `COC(=O)C1CCN(C(=O)c2cc(F)cnc2Oc2cc(Cl)ccc2Cl)c2ccccc21` (stereo not shown) [Example 148, 1-[2-(2,5-Dichloro-phenoxy)-5-fluoro-pyridine-3-carbonyl]-1,2,3,4-tetrahydro-quinoline-4-carboxylic acid methyl ester], 1960 nM. `O=C(c1cc(F)cnc1Oc1cc(Cl)ccc1Cl)N1Cc2cccn2-c2ccccc21` [Example 149]: the concentration giving a half-maximal response (EC50) turned out to be 155 nM. Turning to `O=C(c1cc(F)cnc1Oc1cc(Cl)ccc1Cl)N1CCN(C2CCC2)c2ccccc21` [Example 150, (4-Cyclobutyl-3,4-dihydro-2H-quinoxalin-1-yl)-[2-(2,5-dichloro-phenoxy)-5-fluoro-pyridin-3-yl]-methanone], the EC50 is 58 nM. To `O=C(c1cc(F)cnc1Oc1cc(Cl)ccc1Cl)N1CCN(Cc2ccoc2)c2ccccc21` [Example 151, [2-(2,5-Dichloro-phenoxy)-5-fluoro-pyridin-3-yl]-(4-furan-3-ylmethyl-3,4-dihydro-2H-quinoxalin-1-yl)-methanone] belongs 1070 nM. To `O=C(c1cc(F)cnc1Oc1cc(Cl)ccc1Cl)N1CCN(CC2CCC2)c2ccccc21` [Example 152, (4-Cyclobutylmethyl-3,4-dihydro-2H-quinoxalin-1-yl)-[2-(2,5-dichloro-phenoxy)-5-fluoro-pyridin-3-yl]-methanone] belongs 689 nM; to `O=C(c1cc(F)cnc1Oc1cc(Cl)ccc1Cl)N1CCN(CCC(F)(F)F)c2ccccc21` [Example 153, [2-(2,5-Dichloro-phenoxy)-5-fluoro-pyridin-3-yl]-[4-(3,3,3-trifluoro-propyl)-3,4-dihydro-2H-quinoxalin-1-yl]-methanone], 565 nM; to `CCOC(=O)CN1CCN(C(=O)c2cc(F)cnc2Oc2cc(Cl)ccc2Cl)c2ccccc21` [Example 154, {4-[2-(2,5-Dichloro-phenoxy)-5-fluoro-pyridine-3-carbonyl]-3,4-dihydro-2H-quinoxalin-1-yl}-acetic acid ethyl ester], 53 nM. The compound `O=C(O)CN1CCN(C(=O)c2cc(F)cnc2Oc2cc(Cl)ccc2Cl)c2ccccc21` [Example 155, {4-[2-(2,5-Dichloro-phenoxy)-5-fluoro-pyridine-3-carbonyl]-3,4-dihydro-2H-quinoxalin-1-yl}-acetic acid] registered an EC50 of 788 nM. To `CCOC(=O)CCN1CCN(C(=O)c2cc(F)cnc2Oc2cc(Cl)ccc2Cl)c2ccccc21` [Example 156, 3-{4-[2-(2,5-Dichloro-phenoxy)-5-fluoro-pyridine-3-carbonyl]-3,4-dihydro-2H-quinoxalin-1-yl}-propionic acid ethyl ester] belongs 841 nM.
